The values that follow come from patent US20220323406A1, “METHODS AND COMPOSITIONS FOR DIFFERENTIATING STEM CELLS” (Massachusetts Institute of Technology, priority 2019, published 2022).

The subject of experiment [1] is ENR+CD organoids. In words: Primary screen: ATP (CellTiter-Glo 3D, CTG) cell number/viability, 2.5-D 384-well ENR+CD organoids.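 For all read-outs here: compounds given at plating and again on day 3 over a 6-day differentiation from ENR+CV stem-cell-enriched precursors, ATP measured on day 6, plate median as control.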 As to conditions: primary screen; for Z.CTG: standard z score. On the technique in general: Cellular ATP, detected with luciferase, serves as a proxy for viable cell number.
The test system of experiment [2] is ENR+CD organoids (ISC to Paneth cell differentiation). In words: Primary screen: basal (non-stimulated) lysozyme secretion LYZ.NS, 2.5-D 384-well ENR+CD organoid differentiation. It is filed as cell-based, mouse. The source says:
(§1) High-throughput screening.

Experiment [3] shares this test system. In words: Primary screen: CCh-stimulated lysozyme secretion LYZ.S, 2.5-D 384-well ENR+CD organoid differentiation. In kind it is cell-based, mouse. As to conditions: primary screen.
Source text: as §1

[4] abbreviates: dose 0.08 uM, FC vs plate median.
[5] abbreviates: dose 0.40 uM, FC vs plate median.
The mark [6] stands for this setting: dose 2.00 uM, FC vs plate median.
[7] abbreviates: dose 10.00 uM, FC vs plate median.
[8] abbreviates: primary screen, dose 0.08 uM, standard z score.
Setting [9] is: primary screen, dose 0.40 uM, standard z score.
[10] abbreviates: primary screen, dose 2.00 uM, standard z score.
The mark [11] stands for this setting: primary screen, dose 10.00 uM, standard z score.
[12] abbreviates: primary screen; dose 0.08 uM; FC vs plate median.
Where [13] appears, read: primary screen; dose 0.40 uM; FC vs plate median.
Setting [14] is: primary screen; dose 2.00 uM; FC vs plate median.
The mark [15] stands for this setting: primary screen; dose 10.00 uM; FC vs plate median.

Turning to `C=CCn1c(=O)c2cnc(Nc3ccc(N4CCN(C)CC4)cc3)nc2n1-c1cccc(C(C)(C)O)n1` [MK-1775], the Dose.FC.CTG in experiment [1] (setting [4]) was 0.165 log2 fold change; in experiment [1] (setting [5]), −0.450 log2 fold change; in experiment [1] (setting [6]), −0.804 log2 fold change; in experiment [1] (setting [7]), −1.026 log2 fold change. The Z.LYZ.NS is listed as 0.334 in experiment [2] (setting [8]), −1.331 in experiment [2] (setting [9]), −1.869 in experiment [2] (setting [10]) and −1.574 in experiment [2] (setting [11]). The Dose.FC.LYZ.NS is given as 0.038 log2 fold change in experiment [2] (setting [12]), −0.153 log2 fold change in experiment [2] (setting [13]), −0.215 log2 fold change in experiment [2] (setting [14]) and −0.181 log2 fold change in experiment [2] (setting [15]). For the same compound, the Dose.FC.LYZ.S in experiment [3] (setting [4]) is 0.066 log2 fold change; in experiment [3] (setting [5]), −0.217 log2 fold change; in experiment [3] (setting [6]), −0.208 log2 fold change; in experiment [3] (setting [7]) it was −0.254 log2 fold change.

As for `CCCC(C)NC(=O)c1ccc(Cl)c(Cl)c1` (stereo not shown) [NSC 405020], the Z.CTG in experiment [1] (dose 0.08 uM) is listed as −0.140; in experiment [1] (dose 0.40 uM), −0.170; in experiment [1] (dose 2.00 uM), −0.141; in experiment [1] (dose 10.00 uM), −0.138. The Dose.FC.CTG in experiment [1] (setting [4]) is on record as −0.059 log2 fold change; in experiment [1] (setting [5]) it was −0.071 log2 fold change; in experiment [1] (setting [6]), −0.059 log2 fold change; in experiment [1] (setting [7]) it was −0.058 log2 fold change. Further, the Z.LYZ.NS is listed as 0.071 in experiment [2] (setting [8]), −0.246 in experiment [2] (setting [9]), 0.160 in experiment [2] (setting [10]) and −0.570 in experiment [2] (setting [11]). In addition, the Dose.FC.LYZ.NS was 0.008 log2 fold change in experiment [2] (setting [12]), −0.028 log2 fold change in experiment [2] (setting [13]), 0.018 log2 fold change in experiment [2] (setting [14]) and −0.065 log2 fold change in experiment [2] (setting [15]). The Dose.FC.LYZ.S in experiment [3] (setting [4]) was 0.014 log2 fold change; in experiment [3] (setting [5]), 0.093 log2 fold change; in experiment [3] (setting [6]), 0.002 log2 fold change; in experiment [3] (setting [7]), −0.061 log2 fold change.

Regarding `CCc1cccc2c3c([nH]c12)C(CC)(CC(=O)O)OCC3` (stereo not shown) [Etodolac], the Dose.FC.CTG in experiment [1] (dose 0.08 uM) is −0.061 log2 fold change; in experiment [1] (dose 0.40 uM) it was 0.049 log2 fold change; in experiment [1] (dose 2.00 uM), 0.008 log2 fold change; in experiment [1] (dose 10.00 uM) it was 0.023 log2 fold change. Further, the Dose.FC.LYZ.NS is recorded as 0.046 log2 fold change in experiment [2] (primary screen, dose 0.08 uM); 0.036 log2 fold change in experiment [2] (primary screen, dose 0.40 uM); 0.052 log2 fold change in experiment [2] (primary screen, dose 2.00 uM); −0.009 log2 fold change in experiment [2] (primary screen, dose 10.00 uM). The Z.LYZ.NS was 0.400 in experiment [2] (primary screen, standard z score, dose 0.08 uM); 0.314 in experiment [2] (primary screen, standard z score, dose 0.40 uM); 0.452 in experiment [2] (primary screen, standard z score, dose 2.00 uM); −0.078 in experiment [2] (primary screen, standard z score, dose 10.00 uM). In addition, the Dose.FC.LYZ.S in experiment [3] (dose 0.08 uM) is given as 0.034 log2 fold change; in experiment [3] (dose 0.40 uM) it was 0.127 log2 fold change; in experiment [3] (dose 2.00 uM), 0.070 log2 fold change; in experiment [3] (dose 10.00 uM) it was −0.011 log2 fold change.
